Reference: patent US7420068B2, “Crystalline composition containing escitalopram” (H. Lundbeck A/S, priority 2004, dated 2008)
Counter-ions that a name gives are not always drawn.

What was measured:
Format in all cases: physicochemical
[1] = Particle size distribution by laser diffraction (Sympatec Helos, 1 bar dispersive pressure)
Excerpt: As used herein, “particle size distribution” means the cumulative volume size distribution of equivalent spherical diameters as determined by laser diffraction at 1 bar dispersive pressure in a Sympatec Helos equipment. “Median particle size” “MPS” and X50 refer, correspondingly, each to the median or 50% quantile of said particle size distribution. “X10” and “X95” refer, correspondingly, to the 10% respectively the 95% quantile. “X10/X50” and “X50/X95” refer to the ratio between X10 and X50 respectively X50 and X95.

[2] = Flow properties of prior-art crystalline products (background statement); settings: product of the known preparation process
[3] = Particle size of prior-art crystalline products (background statement); settings: product of the known preparation process

| X50 (median particle size) ([1]; S-diol batches, production scale recrystallisation from ethanol) | X10/X50 ([1]; S-diol batches, ratio of 10% quantile to median) | X50/X95 ([1]; S-diol batches, ratio of median to 95% quantile) | Particle size at quantile 10% ([1]; Sympatec Helos, quantile 10%) | Particle size at quantile 50% ([1]; Sympatec Helos, quantile 50%) | Particle size at quantile 90% ([1]; Sympatec Helos, quantile 90%) | flow properties [2] | particle size [3] | Structure (SMILES) |
| --- | --- | --- | --- | --- | --- | --- | --- | --- |
| 171 µm | 0.13 | 0.44 | 13 μm | 163 μm | 455 μm |  |  | CN(C)CCC[C@@]1(c2ccc(F)cc2)OCc2cc(C#N)ccc21 [Example 1, escitalopram oxalate] |
|  |  |  |  |  |  | very poor | 2-20 μm | CN(C)CCCC1(c2ccc(F)cc2)OCc2cc(C#N)ccc21 (stereo not shown) [citalopram hydrobromide] |
|  |  |  |  |  |  | similarly poor | 2-20 μm | CN(C)CCC[C@@]1(c2ccc(F)cc2)OCc2cc(C#N)ccc21.O=C(O)C(=O)O [escitalopram oxalate, (S)-1-[3-(dimethylamino)propyl]-1-(4-fluorophenyl)-1,3-dihydro-5-isobenzofurancarbonitrile oxalate] |
